According to patent publication US8012987B2, “Indolo[2,1-b] quinazole-6,12-dione antimalarial compounds and methods of treating malaria therewith” (The United States of America as represented by the …, priority 1998, dated 2011):
In brackets after ≈: the same amount, converted by molar mass. Read-outs that look alike come from different tables or passages of the source.

Experiments:
Type in all cases: cell-based
[1] = system: Plasmodium falciparum clone CDC Indochina III (W-2); experiment: In vitro inhibition of [3H]hypoxanthine uptake, P. falciparum W-2 clone; details: Plasmodium falciparum, read-out: IC50 (W-2)
Method: (§1) The in vitro assays were conducted by using a modification of the semiautomated microdilution technique of Desjardins et al.^11 and Chulay et al.^12 Two strains of Plasmodium falciparum clones, from CDC Indochina III (W-2), CDC Sierra Leone I (D-6). […] These solutions were subsequently serially diluted 2-fold with a Biomek 1000® (Beckman, Fullerton, Calif.) over 11 different concentrations. The parasites were exposed to serial dilutions of each compound for 48 h and incubated at 37° C. with 5% O2, 5% CO2, and 90% N2 prior to the addition of [^3H]hypoxanthine. […] Uptake of [^3H]hypoxanthine was measured with a Packard Topcount scintillation counter. […] The values without parentheses indicate culture in blood serum which more closely resemble conditions in a living animal.
(§2) The numbers associated with both W2 and D6 refer to IC50 values and the units are ng/ml.

[2] = system: Plasmodium falciparum clone CDC Sierra Leone I (D-6); experiment: In vitro inhibition of [3H]hypoxanthine uptake, P. falciparum D-6 clone; details: Plasmodium falciparum, read-out: IC50 (D-6)
Method: as §1, §2

[3] = system: Plasmodium falciparum clone Thai TM90C2B; experiment: In vitro inhibition of [3H]hypoxanthine uptake, P. falciparum TM90C2B; details: Plasmodium falciparum, TM90C2B, values without parentheses: blood serum (footnote: blood plasma) replacing Albumax
Method: The in vitro assays were conducted by using a modification of the semiautomated microdilution technique of Desjardins et al.^11 and Chulay et al.^12 Two strains of Plasmodium falciparum clones, from CDC Indochina III (W-2), CDC Sierra Leone I (D-6). […] They were derived by direct visualization and micromanipulation from patient isolates.^13 Test compounds were initially dissolved in DMSO and diluted 400-fold in RPMI 1640 culture medium supplemented with 25 mM Hepes, 32 mM HaHCO3, and 10% Albumax I® (GIBCO BRL, Grand Island, N.Y.). These solutions were subsequently serially diluted 2-fold with a Biomek 1000® (Beckman, Fullerton, Calif.) over 11 different concentrations. The parasites were exposed to serial dilutions of each compound for 48 h and incubated at 37° C. with 5% O2, 5% CO2, and 90% N2 prior to the addition of [^3H]hypoxanthine. After a further incubation of 18 h, parasite DNA was harvested from each microtiter well using Packard Filtermate 196 Harvester® (Meriden, Conn.) onto glass filters. Uptake of [^3H]hypoxanthine was measured with a Packard Topcount scintillation counter. […] This procedure was repeated with the test compounds initially dissolved in DMSO and diluted 400-fold in RPMI 1640 culture medium supplemented with 25 mM Hepes, 32 mM HaHCO3, and with blood serum replacing the 10% Albumax I® (see Table 1, figures without parentheses). The values without parentheses indicate culture in blood serum which more closely resemble conditions in a living animal.
Four strains of Plasmodium falciparum clones, from CDC Indochina III (W-2), CDC Sierra Leone I (D-6), Thai WR75-TM9, and Thai TM90C2B were utilized in susceptibility testing and the IC50 results appear in Table 1.

[4] = values in parentheses: culture medium with 10% Albumax I
[5] = values without parentheses: blood serum (footnote: blood plasma) replacing Albumax

Row | SMILES | IC50 [1, 4] | IC50 [2, 4] | IC50 [1, 5] | IC50 [3] | IC50 [2, 5]
1 | O=C1c2ccccc2-n2c1nc1ccccc1c2=O [Example 1] | 0.069 µg/mL (≈ 0.278 µM) | 0.069 µg/mL (≈ 0.278 µM) |  |  | 
2 | O=c1c2ccccc2nc2sc3ccccc3n12 [Example 2] | 15.6 µg/mL (≈ 61.9 µM) | 12.5 µg/mL (≈ 49.5 µM) |  |  | 
3 | O=c1c2ccccc2nc2oc3ccccc3n12 [Example 3] | > 50 µg/mL | > 50 µg/mL |  |  | 
4 | O=C1c2cc(F)ccc2N2C(=O)c3ccccc3NC12 (stereo not shown) [Example 4] | 0.00233 µg/mL (≈ 0.00869 µM) | 0.00407 µg/mL (≈ 0.0152 µM) | 0.0153 µg/mL (≈ 0.0572 µM) | 0.0298 µg/mL (≈ 0.111 µM) | 0.0189 µg/mL (≈ 0.0704 µM)
5 | Cc1ccc2nc3n(c(=O)c2c1)-c1ccccc1C3=O [Example 5] | 0.264 µg/mL (≈ 1.01 µM) | 0.313 µg/mL (≈ 1.19 µM) |  |  | 
6 | Cc1cccc2c(=O)n3c(nc12)C(=O)c1ccccc1-3 [Example 6] | 0.503 µg/mL (≈ 1.92 µM) | 0.527 µg/mL (≈ 2.01 µM) |  |  | 
7 | O=C1c2ccccc2-n2c1nc1ccc(Br)cc1c2=O [Example 7] | 0.513 µg/mL (≈ 1.57 µM) | 0.577 µg/mL (≈ 1.76 µM) |  |  | 
8 | Nc1ccc2nc3n(c(=O)c2c1)-c1ccc(F)cc1C3=O [Example 8] | 0.062 µg/mL (≈ 0.22 µM) | 0.062 µg/mL (≈ 0.22 µM) |  |  | 
9 | O=C1c2c(Cl)cccc2-n2c1nc1ccccc1c2=O [Example 9] | 0.403 µg/mL (≈ 1.43 µM) | 0.471 µg/mL (≈ 1.67 µM) |  |  | 
10 | Cc1cc(C)c2nc3n(c(=O)c2c1)-c1ccc(F)cc1C3=O [Example 10] | 0.131 µg/mL (≈ 0.445 µM) | 0.138 µg/mL (≈ 0.469 µM) |  |  | 
11 | Cc1cccc2c(=O)n3c(nc12)C(=O)c1cc(F)ccc1-3 [Example 14] | 0.00576 µg/mL (≈ 0.0206 µM) | 0.0102 µg/mL (≈ 0.0363 µM) |  |  | 
12 | CN1CCN(c2ccc3c(=O)n4c(nc3c2)C(=O)c2cc(F)ccc2-4)CC1 [Example 15] | 0.082 µg/mL (≈ 0.225 µM) | 0.126 µg/mL (≈ 0.345 µM) |  |  | 
13 | CN1CCN(c2ccc3c(c2)-n2c(nc4ccccc4c2=O)C3=O)CC1 [Example 16] | 1.01 µg/mL (≈ 2.93 µM) | 2.16 µg/mL (≈ 6.24 µM) |  |  | 
14 | CN1CCN(c2cc3c(cc2F)C(=O)c2nc4ccccc4c(=O)n2-3)CC1 [Example 18] | 0.513 µg/mL (≈ 1.41 µM) | 0.813 µg/mL (≈ 2.23 µM) |  |  | 
15 | CN1CCN(c2cc3c(cc2F)C(=O)c2nc4cc(F)ccc4c(=O)n2-3)CC1 [Example 20] | 0.734 µg/mL (≈ 1.92 µM) | 1.05 µg/mL (≈ 2.76 µM) |  |  | 
16 | O=C1c2ccc(Cl)cc2-n2c1nc1ncccc1c2=O [Example 22] | 0.263 µg/mL (≈ 0.927 µM) | 0.278 µg/mL (≈ 0.979 µM) |  |  | 
17 | O=C1c2cc(I)ccc2-n2c1nc1ncccc1c2=O [Example 23] | 0.00167 µg/mL (≈ 0.00445 µM) | 0.00397 µg/mL (≈ 0.0106 µM) |  |  | 
18 | Cc1ccc(S(=O)(=O)N/N=C2/c3ccccc3-n3c2nc2ccccc2c3=O)cc1 [Example 25] | 1.99 µg/mL (≈ 4.78 µM) | 1.84 µg/mL (≈ 4.42 µM) |  |  | 
19 | CCOC(=O)c1ccc2c(c1)C(=O)c1nc3ccc(I)cc3c(=O)n1-2 [Example 26] | 0.609 µg/mL (≈ 1.37 µM) | 0.589 µg/mL (≈ 1.32 µM) |  |  | 
20 | O=C1c2cc(I)ccc2-n2c1nc1c(Br)cc(Br)cc1c2=O [Example 29] | 0.131 µg/mL (≈ 0.245 µM) | 0.149 µg/mL (≈ 0.281 µM) |  |  | 
21 | O=C1c2ccccc2-n2c1nc1nccnc1c2=O [Example 30] | 0.354 µg/mL (≈ 1.42 µM) | 0.5 µg/mL (≈ 2 µM) |  |  | 
22 | CC(C)(C)OC(=O)N1CCN(c2cc3nc4n(c(=O)c3cc2F)-c2ccc(I)cc2C4=O)CC1 [Example 31] | 0.134 µg/mL (≈ 0.233 µM) | 0.161 µg/mL (≈ 0.279 µM) |  |  | 
23 | O=C1c2cc(I)ccc2-n2c1nc1c(O)nc(O)nc1c2=O [Example 32] | 2.59 µg/mL (≈ 6.34 µM) | 3.85 µg/mL (≈ 9.43 µM) |  |  | 
24 | O=C1c2ccccc2-n2c1nc1c(Br)cc(Br)c(F)c1c2=O [Example 33] | 0.0796 µg/mL (≈ 0.188 µM) | 0.0671 µg/mL (≈ 0.158 µM) |  |  | 
25 | CC1CN(c2cc3nc4n(c(=O)c3cc2F)-c2ccc(I)cc2C4=O)CCN1C(=O)OC(C)(C)C (stereo not shown) [Example 34] | 0.601 µg/mL (≈ 1.02 µM) | 0.588 µg/mL (≈ 0.996 µM) |  |  | 
26 | CC1CN(c2cc3nc4n(c(=O)c3cc2F)-c2ccc(I)cc2C4=O)CCN1 (stereo not shown) [Example 35] | 0.134 µg/mL (≈ 0.273 µM) | 0.103 µg/mL (≈ 0.211 µM) |  |  | 
27 | CC(C)(C)OC(=O)N/N=C1/c2ccccc2-n2c1nc1ccccc1c2=O [Example 36] | 4.82 µg/mL (≈ 13.3 µM) | 4.2 µg/mL (≈ 11.6 µM) |  |  | 
28 | NC(=O)N/N=C1/c2ccccc2-n2c1nc1ccccc1c2=O [Example 37] | 3.48 µg/mL (≈ 11.4 µM) | 3.78 µg/mL (≈ 12.4 µM) |  |  | 
29 | O=C1c2ccccc2-n2c1nc1c(Br)cc(Br)c(Cl)c1c2=O [Example 38] | 0.203 µg/mL (≈ 0.461 µM) | 0.242 µg/mL (≈ 0.549 µM) |  |  | 
